Experiments:
[1] = in vivo
Method: One subject took fluvoxamine while taking cilansetron 2 mg TID.

[2] = test system: diarrhea-predominant IBS subjects; experiment: 3007 Study: IBS-QOL Survey; format: in vivo, human
From the text: Subjects were asked to complete the IBS-QOL Survey at Visits 1, 3, and 6 in order to assess possible changes of their QOL.
Subjects were asked to complete a IBS-QOL Survey at Day 1 (Visit 5 of the core protocol), Month 6 and Month 12 (end of study or early termination) in order to assess possible changes of their QOL. The IBS-QoL survey, a 34 item IBS-specific QoL questionnaire consisting of 8 subscales (i.e., interference with activity; body image; health worry; food avoidance; social reaction; sexual; relationship; and dysphoria) was completed by patients at baseline and at later specified time points (e.g., at week 12 and at week 16 in Study 5050).
For IBS-QOL, Baseline for subjects randomized to the cilansetron treatment group was defined as […] of core Study 3006. For subjects randomized to the placebo group of core Study 3006, Visit 5 of the core Study 3006 was assigned as the Baseline.
Mean changes from Baseline for the IBS-QOL total score and subscale domains were summarized via descriptive statistics at […] and Visit 6 (Month 12) of Study 3007 for subjects randomized to the placebo group in core Study 3006 (or for subjects randomized to the cilansetron treatment group in the core Study 3006, at Visit 5 (Month 3), at Visit 3 (Month 6) and Visit 6 (Month 15) of Study 3007).
For Study 3007, “baseline” was defined as the last post-Baseline visit of Study 3006 (normally Visit 5) for subjects randomized to the placebo group and as Visit 1 of core Study 3006 for subjects randomized to the cilansetron treatment group.
The overall IBS-QOL score and the separate IBS-QOL domain scores (i.e. dysphoria, interference with activity, body image, health worry, food avoidance, social reaction, sexual, and relationship) were summarized by treatment group using descriptive statistics. The calculation of each domain score and the overall score is detailed in the user's manual. For each of the domain scores, as well as for the overall score, the change from Baseline to Endpoint was summarized descriptively. Based on the instruction from the author of the IBS-QOL questionnaire, the missing data of the IBS-QOL questionnaire were handled as follows: • If less than or equal to 20% of the items within a subscore (or total score) were missing for a subject, the subscore (or total score) was the summation of the non-missing scores for that subject; • If more than 20% of the items within a subscore (or total score) were missing, the subscore (or total score) was missing for that subject. Determination of Sample Size

Compound: Cc1nccn1C[C@H]1CCc2c(c3cccc4c3n2CCC4)C1=O [cilansetron, (R)-(−)-4,5,6,8,9,10-hexahydro-10-[(2-methyl-1H-imidazol-1-yl)methyl]-11H-pyrido-[3,2,1-jk]-carbazol-11-one]
- increase of cilansetron plasma levels [1]: approximately six to seven
- QOL after the start of cilansetron treatment ([2]; Study 3007, P/C): An improvement was observed
- improvement of mean IBS-QOL total score from Baseline ([2]; Study 3007, at Endpoint, C/C): 20.1
- mean IBS-QOL total score ([2]; Study 3007, at Endpoint, C/C): 70.7
- improvement of mean IBS-QOL total score from Baseline ([2]; Study 3007, at Endpoint, P/C): 8.9
- mean IBS-QOL total score ([2]; Study 3007, at Endpoint, P/C): 70.9
- mean IBS-QOL total score ([2]; Study 3007, at Endpoint, overall): 70.8
- mean IBS-QOL total score ([2]; at the start of Study 3007 (after 12 weeks of Study 3006), C/C): 69.5
- beneficial effect on the QOL observed during Study 3006 ([2]; during Study 3007, C/C): maintained
